Values joined by “and” are separate entries in the source; they are usually repeats but may differ in a detail not shown here. Equal entries are not always repeated.

The test addresses Glutamate receptor ionotropic, NMDA 1 (Rattus norvegicus, UniProt P35439).
`N[C@H](CC(=O)O)C(=O)O`: the inhibition constant (Ki) was 800 nM and 900 nM. For `N[C@@H](Cn1oc(=O)[nH]c1=O)C(=O)O` [2-amino-3-(3,5-dioxo[1,2,4]oxadiazolidin-2-yl)propionic acid] the value was greater than 10000 nM. For the compound `N[C@H](CCCP(=O)(O)O)C(=O)O` [CB3371309], the inhibition constant Ki is 350 nM and 400 nM.

As for `O=C(O)[C@H]1CN(CCCP(=O)(O)O)CCN1` [CPP], the inhibition constant Ki was 220 nM and 150 nM. In the case of `NC(CCCCCP(=O)(O)O)C(=O)O` (stereo not drawn) [DL-AP7], the inhibition constant Ki was 900 nM and 1100 nM. `O=C(O)c1cccc(C(=O)O)n1` [Dipicolinate] came in with an inhibition constant Ki greater than 10000 nM. For `N[C@@H](CC(=O)O)C(=O)O` [L-Aspartic acid, 2], the Ki is 1400 nM and 1600 nM. For the compound `CN[C@H](CC(=O)O)C(=O)O` [NMDA], the Ki was 4100 nM and 5600 nM. For `O=C(O)[C@@H]1C[C@H](CP(=O)(O)O)CCN1` [Selfotel] the value was 140 nM.

`CCOC(=O)CC[C@H](N)C(=O)OCC` [glutamic acid diethyl ester] yielded an inhibition constant Ki greater than 10000 nM. `O=C(O)c1cccnc1C(=O)O` [pyridine-2,3-dicarboxylic acid] came in with a Ki greater than 10000 nM.

Broadly, the Ki is a measure of affinity in units of concentration, obtained from inhibition or displacement.

For the origin of these results see BindingDB's records for doi:10.1111/j.1476-5381.1988.tb11723.x (Ciba-Geigy, 1988).
